Measurements from patent publication US8119640B2, “Hedgehog pathway antagonists methods of use” (The Board of Trustees of the Leland Stanford Junior …, priority 2008, dated 2012).

How the values were obtained:
Hh pathway = assay: Shh-EGFP assay for Hh pathway activation; assay type: cell-based; conditions: Shh-N-conditioned medium; HPIs at ten-fold their Shh-LIGHT2 IC50 or 30 μM, whichever lower
Protocol: Shh-EGFP assay for Hh pathway activation. A Gli-dependent enhanced green fluorescent protein reporter (Shh-EGFP) was generated by excising firefly luciferase cDNA from the 8XGliBs vector using NcoI/Hpal, and ligating in EGFP cDNA excised from the pEGFP-C1 vector (Clontech) by NcoI/Af/II digestion. […] The cells were grown to confluency and treated with DMEM containing 0.5% CS, 100 U/mL penicillin, 0.1 mg/mL streptomycin, and 5% Shh-N-conditioned medium for 30 h. Following Shh-N treatment, the adherent cultures were dissociated into single cells with 0.05% Trypsin-EDTA (300 μL/well; Invitrogen) for 5 min. The cells were then suspended in 1 mL of PBS containing 1% CS and sorted on a BD FACSAria (excitation: 488 nm; emission: 530/30 nm) to enrich for cells expressing EGFP in a Shh-N-responsive manner. […] To identify Shh-EGFP clones with maximum Shh-N-responsiveness, individual lines were seeded into 24-well plates (45,000 cell/well) and cultured for 48 h. The cells were then treated with DMEM containing 0.5% CS, 100 U/mL pencillin, 0.1 mg/mL streptomycin or the culture medium plus 5% Shh-N-conditioned medium. After 30 h, the adherent cultures were treated with 0.05% trypsin-EDTA (150 μL/well; Invitrogen) for 5 min to dissociate them into single cells. The cells were then resuspended in 500 μL of PBS containing 1% CS and analyzed on a BD FACSCalibur (excitation: 488 nm; emission: 530/30 nm). 10,000 cells were used to assess EGFP expression levels as a measure of Hh pathway activation, and the data was analyzed using FlowJo software (Tree Star). Clones with low basal EGFP levels and maximum Shh-Ninduced EGFP expression were selected for further use. To assess the inhibitory activities of the HPIs in the Shh-EGFP cells, a clonal line with maximum Shh-responsiveness was cultured in 24-well plates as described above. […] The resulting EGFP levels were then evaluated by FACS and quantified using the FlowJo software.

FLAG-Gli2 = assay: Analysis of Gli2 processing and Shh-dependent Gli2 stabilization; assay type: cell-based, mouse; conditions: Shh-EGFP FLAG-Gli2 cells, absence and presence of Shh, 24 h
Protocol: Analysis of Gli2 processing and Shh-dependent Gli2 stabilization. […] Each compound incubation was also done in the absence and presence of 5% Shh-N-conditioned medium, and the cells were maintained under these conditions for 24 h. The cells were subsequently solubilized in lysis buffer (100 μL/well; 50 mM Tris-HCl, pH 7.4, 1% Triton X-100, 250 mM NaCl, 2 mM EDTA, 20 mM NaF, 2 mM Na3VO4, 2 mM 2-mercaptoethanol, EDTA-free protease inhibitor cocktail (Roche)). This suspension was transferred to a 1.5-mL centrifuge tube and incubated on ice for 30 min, with vortexing every 5 min. The cell lysates were then centrifuged at 20,000×g at 4° C. for 20 min. Supernatants were removed, and a BCA protein assay was performed to quantify protein levels. Mouse anti-FLAG M2 agarose slurry (20 μL, Sigma) was pelleted by centrifugation and incubated with 800 ng of protein from each condition for 90 min at 4° C. and then washed three times with 1 mL of wash buffer (75 mM Tris-HCl buffer, pH 8.0 containing 225 mM NaCl, 0.5% Triton X-100) and centrifuged at 2,300×g at 4° C. The agarose beads were suspended in 30 μL of 1×SDS-PAGE sample buffer (50 mM Tris-HCl, pH 6.8 containing 10% glycerol, 2% SDS, 50 mM DTT, 200 mM 2-mercaptoethanol, and 0.001% bromophenol blue), and the mixture was boiled for 5 min. The samples were then resolved on a 4-12% Bis-Tris Criterion XT gel and transferred to a PVDF membrane. The membrane was dehydrated with methanol, and then probed with rabbit anti-FLAG antibody (Sigma; 1:1,000 dilution in blocking buffer (PBS 21 containing 3% non-fat dried milk and 0.01% Tween 20)) for 90 min. […] Blots were washed 4×3 min in PBS, and the immunoreactive bands were detected with a SuperSignal West Dura kit and a ChemiDoc XRS system. Protein bands were quantified using Quantity One software (Bio-Rad). For each experiment, boxes of equal size were drawn around the FLAG-Gli2 and FLAG-Gli2R bands. Band intensities were then normalized to the average intensity for all bands in a given experiment. The results from all experiments were averaged and normalized relative to the basal level of FLAG-Gli2 (DMSO treatment without Shh-N-conditioned medium).

Smo = Smo (Mus musculus, UniProt P56726); assay: FRET assay for Smo multimerization (Smo-CFP/Smo-YFP); assay type: cell-based, murine; design: expressed in transfected cells; host or cells: NIH-3T3; conditions: 10 μM HPIs; for Shh-induced fold change in Smo-CFP/Smo-YFP FRET: 10 μM cyclopamine, 500 nM SAG
Protocol: FRET assay for Smo multimerization. […] The cells were washed with PBS buffer, fixed with 4% paraformaldehyde for 20 min, and mounted on slides in 80% glycerol. Fluorescence signals were acquired with the 100× objective of a Zeiss LSM510 confocal microscope with the following conditions: CFP was excited by 458-nm light and the emission was collected through a BP 480-520-nm filter. YFP was excited by 514-nm light and the emission was collected through a BP 535-590-nm filter. The CFP signal was obtained before and after photobleaching YFP(CFPBP and CFPAP, respectively) using the full power of the 514-nm laser line for 1-2 min at the top half of each cell, leaving the bottom half unbleached as an internal control. The CFP fluorescence intensity was analyzed using Metamorph software (Universal Imaging Corp.), and the energy transfer efficiency was calculated using the formula: FRET %=((CFPAP−CFPBP)/CFPAP)×100. Photobleached areas in 11-19 cells were analyzed for each experimental condition.

Chain of Smo (P56726 33-793): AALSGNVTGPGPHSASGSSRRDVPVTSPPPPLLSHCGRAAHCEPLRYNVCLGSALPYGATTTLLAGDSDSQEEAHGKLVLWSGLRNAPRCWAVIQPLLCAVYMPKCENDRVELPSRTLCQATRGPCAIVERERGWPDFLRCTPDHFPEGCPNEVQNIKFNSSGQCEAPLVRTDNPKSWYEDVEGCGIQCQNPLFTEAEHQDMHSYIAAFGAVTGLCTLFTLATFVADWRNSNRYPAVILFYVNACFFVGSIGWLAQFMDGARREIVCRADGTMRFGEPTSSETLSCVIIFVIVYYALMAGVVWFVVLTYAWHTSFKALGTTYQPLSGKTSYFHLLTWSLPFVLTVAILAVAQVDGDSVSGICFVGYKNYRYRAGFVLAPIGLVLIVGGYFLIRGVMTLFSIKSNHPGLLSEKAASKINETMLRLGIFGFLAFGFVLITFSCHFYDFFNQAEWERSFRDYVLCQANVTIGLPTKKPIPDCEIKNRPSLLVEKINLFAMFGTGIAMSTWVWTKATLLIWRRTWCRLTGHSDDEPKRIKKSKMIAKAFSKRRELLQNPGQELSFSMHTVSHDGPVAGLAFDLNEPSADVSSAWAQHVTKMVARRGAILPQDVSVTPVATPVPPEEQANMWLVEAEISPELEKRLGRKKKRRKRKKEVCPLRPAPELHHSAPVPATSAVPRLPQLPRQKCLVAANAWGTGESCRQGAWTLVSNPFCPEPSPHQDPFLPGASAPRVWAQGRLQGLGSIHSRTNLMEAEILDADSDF
Chain of Smo (P56726 33-793): as above

COCCOC(=O)C1=C(C)NC2=C(C(=O)CC(c3ccccc3OC)C2)C1c1cccc(O)c1 (mixture of isomers) [Compound 8, 4-(3-Hydroxy-phenyl)-7-(2-methoxy-phenyl)-2-methyl-5-oxo-1,4,5,6,7,8-hexahydro-quinoline-3-carboxylic acid 2-methoxy-ethyl ester]
% Inhibition Shh-GFP cells (Hh pathway): 86% | FLAG-Gli2 levels and processing (immunoblotting) (FLAG-Gli2): slightly elevated levels of full-length and repressor forms of FLAG-Gli2 under basal conditions and greater FLAG-Gli2 processing upon Shh stimulation | Shh-induced fold change in Smo-CFP/Smo-YFP FRET (Smo): attenuated the fold-change in Smo-CFP/Smo-YFP FRET upon Shh stimulation

N#Cc1cc2c(nc1SCC(=O)Nc1nc3ccccc3s1)CCC2 [Compound 1]
% Inhibition Shh-GFP cells (Hh pathway): 74.4%

CCCCNC(=N)C(C)c1ccc(CC(C)C)cc1 (stereo not drawn) [Compound 2]
% Inhibition Shh-GFP cells (Hh pathway): 80.9%

Cc1cc(/C=c2\sc3nc4ccccc4n3c2=O)c(C)n1C(C)C [Compound 3]
% Inhibition Shh-GFP cells (Hh pathway): 60.5%

O=C(Nc1cccc2ccccc12)OC[C@@H]1CCCN2CCCC[C@H]12 [Compound 4]
% Inhibition Shh-GFP cells (Hh pathway): 63%

CCC(C)NS(=O)(=O)c1ccc(Cc2ccc(S(=O)(=O)NC(C)CC)cc2)cc1 (stereo not drawn) [Compound 5]
% Inhibition Shh-GFP cells (Hh pathway): 84.9%

CCOC(=O)c1cc2c(=O)n3ccccc3nc2n(C(C)C)c1=NC(=O)c1cc(OC)cc(OC)c1 [Compound 6]
% Inhibition Shh-GFP cells (Hh pathway): 84.5%

CCN1CCCC1CNC(=O)C1CCN(c2nc3c(C)cc(C)cc3s2)CC1 (stereo not drawn) [Compound 7]
% Inhibition Shh-GFP cells (Hh pathway): 90.5%

CCOC(=O)c1cn(-c2ccccc2)nc1-c1ccc(OC)c(OC)c1 [Compound 9]
% Inhibition Shh-GFP cells (Hh pathway): 86.5%

O=S(=O)(Nc1cc(Cl)c(Cl)cc1Cl)c1ccc(F)cc1 [Compound 10]
% Inhibition Shh-GFP cells (Hh pathway): 78.8%

OCCNc1nc(N2CCN(c3ccccc3)CC2)nc2ccccc12 [Compound 11]
% Inhibition Shh-GFP cells (Hh pathway): 76.7% | FLAG-Gli2 levels and processing (immunoblotting) (FLAG-Gli2): moderately increased total FLAG-Gli2 levels as well but did not alter proteolytic processing of the transcription factor | Basal Smo-CFP/Smo-YFP FRET levels (Smo): decreased basal FRET levels

CC(C)(C)N(CCNS(=O)(=O)c1ccc(-c2cc(C(F)(F)F)no2)s1)Cc1ccco1 [Compound 12]
% Inhibition Shh-GFP cells (Hh pathway): 87.5%

CN1CCN(C2Cc3ccccc3Sc3ccccc32)CC1 (stereo not drawn) [Compound 13]
% Inhibition Shh-GFP cells (Hh pathway): 78.3%

CCOc1ccc2ncc(C(=O)c3ccc(C)cc3)c(N3CCCC3)c2c1 [Compound 14]
% Inhibition Shh-GFP cells (Hh pathway): 67.2%

O=C(Nc1nnc(S(=O)(=O)N2CCCCC2)s1)c1cccc(Br)c1 [Compound 15]
% Inhibition Shh-GFP cells (Hh pathway): 86.9%

CCOc1ccc(CCNc2cnnc3c(Cl)cccc23)cc1OCC [Compound 16]
% Inhibition Shh-GFP cells (Hh pathway): 82.7%

COc1ccc(OC)c2c1cc1n2CC(C)(C(=O)NC2CCCCCCC2)N(CCN(C)C)C1=O (stereo not drawn) [Compound 17]
% Inhibition Shh-GFP cells (Hh pathway): 80.2% | FLAG-Gli2 levels and processing (immunoblotting) (FLAG-Gli2): moderately increased total FLAG-Gli2 levels as well but did not alter proteolytic processing of the transcription factor | Basal Smo-CFP/Smo-YFP FRET levels (Smo): decreased basal FRET levels | Shh-induced fold change in Smo-CFP/Smo-YFP FRET (Smo): attenuated the fold-change in Smo-CFP/Smo-YFP FRET upon Shh stimulation

N#CC(C(=O)c1ccc(Cl)cc1Cl)=C1NC(=O)c2ccccc2N1 [Compound 18]
% Inhibition Shh-GFP cells (Hh pathway): 80% | FLAG-Gli2 levels and processing (immunoblotting) (FLAG-Gli2): both decreased total FLAG-Gli2 levels and prevented Shh dependent stabilization of full-length FLAG-Gli2 | Basal Smo-CFP/Smo-YFP FRET levels (Smo): decreased basal FRET levels
